According to ChEMBL document CHEMBL4190179 (Medchemcomm, 2016):

system: not listed separately; assay: Inhibition of PMA-stimulated Il-17A production in mouse Th17 cells at 0.3 uM by live/dead fixable dead cell staining based flow cytometric analysis relative to control; assay type: functional

Structure (SMILES)	inhibition at 0.3 µM [%]
COc1ccc(Cl)c(-c2ccc(NC(=O)c3ccccc3F)cc2)c1	43
O=C(O)c1ccc(Cl)c(-c2ccc(NC(=O)c3c(F)cccc3F)cc2)c1	7
COc1ccc(Cl)c(-c2ccc(NC(=O)c3c(F)cccc3F)cn2)c1	29
COc1ccc(Cl)c(-c2ccc(NC(=O)C3CCOCC3)cc2)c1	35
COc1ccc(Cl)c(-c2ccc(NC(=O)c3ccccc3)cc2)c1	35
COc1ccc(Cl)c(-c2ccc(NC(=O)c3ccccc3Cl)cc2)c1	39
COc1ccc(Cl)c(-c2ccc(NC(=O)CCc3ccccc3)cc2)c1	24
COc1ccc(Cl)c(-c2ccc(NC(=O)c3c(F)cccc3F)cc2Cl)c1	75
O=C(Nc1ccc(-c2cc(OC(F)(F)F)ccc2Cl)cc1)c1c(F)cccc1F	97
COc1ccc(Cl)c(-c2ccc(NC(=O)c3ncccc3F)cc2)c1	22
O=C(Nc1ccc(-c2ccccc2Cl)cc1)c1c(F)cccc1F	48
COc1ccc(Cl)c(-c2ccc(NC(=O)C(C)C)cc2)c1	22
COc1ccc(Cl)c(-c2ccc(NC(=O)Cc3ccccc3)cc2)c1	33
COc1ccc(C)c(-c2ccc(NC(=O)c3c(F)cccc3F)cc2)c1	93
COc1ccc(Cl)c(-c2ccc(NC(=O)c3c(F)cccc3F)cc2)c1	71
O=C(Nc1ccc(-c2ccccc2)cc1)c1c(F)cccc1F	45
Cc1ccc(-c2ccc(NC(=O)c3c(F)cccc3F)cc2)cn1	4

Structure (SMILES)	inhibition at 0.3 µM [%]
COc1ccc(Cl)c(-c2ccc(NC(=O)c3ccccc3C(F)(F)F)cc2)c1	25
COc1ccc(Cl)c(-c2cccc(NC(=O)c3c(F)cccc3F)c2)c1	12
COc1ccc(Cl)c(-c2ccc(NC(C)=O)cc2)c1	11
COc1ccc(Cl)c(-c2ccc(NC(=O)CC3CCOCC3)cc2)c1	8
O=C(Nc1ccc(-c2cccnc2)cc1)c1c(F)cccc1F	17
COc1ccc(Cl)c(-c2ccc(NC(=O)CC3CC3)cc2)c1	9
COc1ccc(Cl)c(-c2ccc(NC(=O)C3CCCO3)cc2)c1 (configuration not stated)	30
COCC(=O)Nc1ccc(-c2cc(OC)ccc2Cl)cc1	1
COc1ccc(Cl)c(-c2ccc(NC(=O)c3c(F)cccc3F)cc2F)c1	82
COc1ccc(Cl)c(-c2ccc(NC(=O)c3c(F)cccc3Cl)cc2)c1	64
COc1ccc(Cl)c(-c2ccc(NC(=O)C3CC3)cc2)c1	35
COc1ccc(Cl)c(-c2ccc(NC(=O)Cc3ccccc3F)cc2)c1	19
COc1ccc(Cl)c(-c2ccc(NC(=O)C3CCCC3)cc2)c1	34
Cn1cc(-c2ccc(NC(=O)c3c(F)cccc3F)cc2)cn1	-7
Cc1ccccc1-c1ccc(NC(=O)c2c(F)cccc2F)cc1	60
COc1ccc(Cl)c(-c2ccc(NC(=O)C3CCN(C)CC3)cc2)c1	16
COc1ccc(Cl)c(-c2ccc(NC(=O)C3CCCCC3)cc2)c1	26

biological target: T1, Nuclear receptor ROR-gamma (Homo sapiens, UniProt P51449); assay: Inverse agonist activity at RORgammat (unknown origin) by FRET assay
T1 sequence (P51449 whole entry): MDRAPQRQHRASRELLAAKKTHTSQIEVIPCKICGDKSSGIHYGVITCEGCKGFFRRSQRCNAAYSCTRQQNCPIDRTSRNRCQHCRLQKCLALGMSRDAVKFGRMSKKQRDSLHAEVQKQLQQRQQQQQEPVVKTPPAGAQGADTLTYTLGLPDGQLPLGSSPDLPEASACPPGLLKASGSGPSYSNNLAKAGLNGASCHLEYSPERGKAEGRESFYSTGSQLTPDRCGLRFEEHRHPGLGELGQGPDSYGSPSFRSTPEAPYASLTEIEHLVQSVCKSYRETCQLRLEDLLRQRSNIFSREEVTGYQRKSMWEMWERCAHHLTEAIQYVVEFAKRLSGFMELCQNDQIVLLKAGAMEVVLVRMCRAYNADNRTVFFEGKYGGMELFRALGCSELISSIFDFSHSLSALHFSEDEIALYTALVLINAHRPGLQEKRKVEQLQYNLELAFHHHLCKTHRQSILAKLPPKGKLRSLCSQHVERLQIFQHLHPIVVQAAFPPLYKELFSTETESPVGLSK

IC50 [nM]	Structure (SMILES)
> 50000	O=C(Nc1ccc(-c2cc(OC(F)(F)F)ccc2Cl)cc1)c1c(F)cccc1F

system: not listed separately; assay: (§1) Inhibition of PMA-stimulated Il-17A production in mouse Th17 cells by live/dead fixable dead cell staining based flow cytometric analysis; assay type: functional

IC50 [nM]	Structure (SMILES)
13	O=C(Nc1ccc(-c2cc(OC(F)(F)F)ccc2Cl)cc1)c1c(F)cccc1F

organism: Mus musculus; assay: as §1; assay type: functional

Structure (SMILES)	inhibition
O=C(Nc1ccc(-c2cc(OC(F)(F)F)ccc2Cl)cc1)c1c(F)cccc1F	Dose-dependent effect
